Source: patent publication US10829528B2, “Therapeutic agents for neurological and psychiatric disorders” (VIB VZW, priority 2016, dated 2020)

Experiments:
[1] = biological target: T1, sushi1 domain of GABABR1a (Homo sapiens, UniProt Q9UBS5); assay: Isothermal titration calorimetry (ITC) with purified sushi1; type: binding
T1 construct: made in house
Method: (§1) We first determined which GABAB subunit and isoform sAPPα bound. The GABABR is comprised of two subunits, the GABABR1 and the GABABR2 subunit. GABABR1 is present as two main isoforms (1a and 1b), with the only difference between these isoforms being the presence of two protein-binding sushi repeats in the ectodomain of GABABR1a (FIG. 1A-B). […] The sequence of the Sushi domain 1 is […].
All ITC experiments were carried out on a MicroCal iTC200 system. For ITC experiments involving APP constructs expressed in HEK293 cells, the purified GABABR1a-Sushi1 domain, sAPPα, CuBDAcD, AcD and CuBD constructs were buffer-exchanged by size exclusion chromatography in 20 mM Na-HEPES pH 7.0, 150 mM NaCl supplemented with 5 mM CaCl2. Concentrated samples were diluted and degassed before the experiment at the concentrations reported in the FIG. legends. sAPP fragments (all of them at 30 μM) were placed in the MicroCal sample cell and matching buffer was placed in the reference cell. Sushi1 (300 μM) was in the syringe and was injected into the cell in a series of 1 μL injections at 25° C. All the datasets were subtracted with a reference data consisting of serial injections of Sushi1 in the cell, containing buffer only under the same conditions. For ITC experiments involving synthetic APP peptides, the Sushi-1 protein was dialysed overnight to PBS buffer. […]

GABABR1a = biological target: T2, GABABR1a (Homo sapiens, UniProt Q9UBS5); assay: Cell surface binding assay: Fc-tagged APP proteins applied to GABABR-transfected HEK293 cells, bound Fc detected by immunofluorescence; type: cell-based; settings: Fc-tagged proteins 500 nM, 1 hr at RT; GFP-transfected cells as negative control
T2 construct: expressed in transfected cells; host or cells: HEK293T
T2 sequence (Q9UBS5 20-591 limits assumed): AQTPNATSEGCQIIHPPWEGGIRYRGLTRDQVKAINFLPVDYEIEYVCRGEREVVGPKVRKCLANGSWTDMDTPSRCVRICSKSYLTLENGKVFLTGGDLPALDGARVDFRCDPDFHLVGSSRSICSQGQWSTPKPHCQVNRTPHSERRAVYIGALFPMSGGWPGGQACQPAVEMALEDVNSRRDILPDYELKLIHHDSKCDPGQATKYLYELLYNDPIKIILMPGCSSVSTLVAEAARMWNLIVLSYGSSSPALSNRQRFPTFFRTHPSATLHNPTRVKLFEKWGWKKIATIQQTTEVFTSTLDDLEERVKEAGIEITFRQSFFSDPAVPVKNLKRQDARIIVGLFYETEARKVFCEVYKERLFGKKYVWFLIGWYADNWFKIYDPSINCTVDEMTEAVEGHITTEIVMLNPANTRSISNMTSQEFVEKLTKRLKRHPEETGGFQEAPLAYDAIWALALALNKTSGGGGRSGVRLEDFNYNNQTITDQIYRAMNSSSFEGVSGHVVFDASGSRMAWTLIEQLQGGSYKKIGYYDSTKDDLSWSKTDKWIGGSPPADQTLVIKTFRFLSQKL
Method: To confirm the APPα-GABABR interaction and identify the interacting domains, we used a cell-based binding assay. Purified Fc-sAPPα (or its domains) were exogenously applied to GABABR-transfected HEK293 cells. Bound Fc-sAPPα was determined by immunofluorescence.
as §1
HEK293T cells were transfected with GFP (as negative control) or pdisplay-GABABR-1a, -1b, or -2 plasmids using Fugene6 (Promega). Twenty-four hours after transfection, the cells were incubated with Fc (as negative control) or the various Fc-tagged APP proteins (500 nM, in Dulbecco's modified Eagle's medium [DMEM] supplemented with 20 mM HEPES [pH 7.4]) for 1 hr at RT. After three brief washes with DMEM/20 mM HEPES (pH 7.4), cells were fixed in 4% paraformaldehyde, 4% sucrose in PBS. […] Image thresholding was set with ImageJ software using constant settings per experiment and the area of Fc binding was measured relative to cell area.

[2] = tested on: primary hippocampal neurons; assay: mEPSCs & mIPSCs in cultured primary hippocampal neurons (wild type); type: cell-based, mouse; settings: acute application, 250 nM each
Method: mEPSCs & mIPSCs are measured in cultured primary hippocampal neurons at baseline and following acute application of agonists. Excitatory terminals selectively express the sushi domain-containing GABABR1a isoform (ref18), where it functions to inhibit neurotransmitter release (ref 24). Acute exposure of primary hippocampal neurons from wild type mice to 30μM baclofen, a GABABR agonist, or 250 nM sAPPα (Fc cleaved) reduces the frequency of miniature excitatory postsynaptic currents (mEPSCs) by 68% (FIG. 8 a,b) and 39% (FIG. 8 c,d), respectively, with no effect on mEPSC amplitude (FIG. 8e). […] Acute application of 30 μM baclofen or 250 nM purified sAPPα reduces the frequency of miniature inhibitory postsynaptic currents (mIPSCs) by 63% (FIG. 8a, 9a) and 44% (FIG. 8c, 9b), respectively, which is blocked by pretreatment with the GABABR antagonist CGP55845 (CGP, 5 μM) (FIG. 8f, 9d). Application of sAPPα causes a minor (14%) reduction on mIPSC amplitude (FIG. 8e, 9c). […] Baclofen is known to reduce the frequencies of mEPSCs and mIPSCs, which we have also confirmed. […] To confirm that the agonist is acting through GABABR1a, the agonist is tested in cultures with shRNA mediated knockdown of GABABR1a or antisense oligonucleotides mediated exon skipping of the exon encoding the Sushi domain 1 of GABABR1a. Antagonists are tested by treatment in combination with the agonist, Baclofen. […] As an antagonist we test an antibody against the sushi domain sequence (SEQ ID No: 5): […] SWTDMDTPSRCV. An antibody specifically binding to this domain which acts as an antagonist increases the frequencies of mEPSCs and mIPSCs. sAPPα also reduces mEPSC and mIPSC frequency in App/Aplp1 dKO cultures (FIG. 8j, 9f), excluding the possibility that sAPPα interferes with a complex of full-length APP and GABABR1 to exert its effect on GABABR signaling.
Hippocampal neurons were cultured from E18 C57/B16 wild type mice or APP/APLP1 dKO mice (provided by Ulrike Muller46) and plated on poly-D-lysine (Millipore), and laminin (Invitrogen) coated coverslips (Nalge Nunc International). Neurons were maintained in Neurobasal medium (Invitrogen) supplemented with B27, glucose, glutamax, penicillin/streptomycin (Invitrogen) and 25 μM β-mercaptoethanol.
Single neurons from wild type or APP/APLP1 null mutant embryos (E18) were recorded within the large neuronal network at DIV 12-15. The intracellular whole-cell pipette medium contained (in mM): 136 KCl, 18 HEPES, 4 Na-ATP, 4.6 MgCl2, 15 Creatine Phosphate, 1 EGTA and 50 U/ml Phospocreatine Kinase (300 mOsm, pH 7.30). Regular external solution contained 2 mM/2 mM Ca2+/Mg2+(in mM: 140 NaCl, 2.4 KCl, 2 CaCl2), 2 MgCl2, 10 HEPES, 14 Glucose (300 mOsm, pH 7.30)) and TTX (1 μM). Pharmacological reagents (30 μM baclofen, 5 μM CGP), sAPLP1, full length sAPP and sAPP derived peptides (250 nM each) were bath applied (dissolved in external medium described above) using a separate gravity driven application inlet. Recordings were done in whole cell voltage clamp configuration at −70 mV with a double EPC-10 amplifier (HEKA Elektronik) under control of Patchmaster v2×32 software (HEKA Elektronik). Currents were low-pass filtered at 3 kHz and stored at 20 kHz. Patch pipettes were pulled from borosilicate glass using a multi-step puller (P-1000; Sutter Instruments). Pipette resistance ranged from 3 to 5 MΩ and was compensated to 75-80%. Only cells with series resistances <15 MΩ were included in analysis. All recordings were done at room temperature. Spontaneous events were detected using Mini Analysis program (Synaptosoft). mEPSCs and mIPSCs were separated on the basis of their distinct decay kinetics, using a threshold of 5 ms47. Baseline was determined from an average of 60 sec of recordings prior to protein or drug treatment. Effect of treatment was determined from an average of 30 sec recordings after 140 sec of protein or drug treatment.

CA1 pyramidal neurons = assay: Long-term potentiation in hippocampal slices; type: cell-based; settings: non-primed high frequency stimulation protocol for agonists
Method: Long-term potentiation (LTP) is induced by stimulation of Schaffer collateral fibers and the response of CA1 pyramidal neurons is measured by extracellular recordings. For measuring antagonists, a primed burst stimulation protocol is used to activate GABABR receptors. Under this protocol, an antagonist blocks induction of LTP. For measuring agonists, a non-primed high frequency stimulation protocol is used.

T1 sequence (Q9UBS5 26-97): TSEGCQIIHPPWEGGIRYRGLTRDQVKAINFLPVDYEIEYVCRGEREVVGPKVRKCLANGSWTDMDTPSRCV

Substance: GGADTDYADG (listed as Homo sapiens) [residues 211-220, synthetic peptide within the ExD, 211-220AA of APP695]
- binding to sushi1 by ITC (in words) [1]: fails to bind

Substance: ED: Fc-fusion of the 33 aa extension domain, mouse APP695 195-227aa
- binding to GABABR1a-expressing HEK293 cells (immunofluorescence) (GABABR1a): sufficient for binding to GABABR1a

Substance: NVDSADAEEDDSDVWWGGADTDYADGSEDKVVE (listed as Homo sapiens) [Extension domain of human sAPPα (33 amino acids)]
- effect on mEPSC frequency (in words) [2]: reduces the frequencies of mEPSCs and mIPSCs
- effect on mIPSC frequency (in words) [2]: reduces the frequencies of mEPSCs and mIPSCs
- effect on LTP (CA1 pyramidal neurons): facilitates LTP
